Reference: PMC2887688 (Journal of biomolecular screening, 2010)
Entries after “also recorded” stand apart in the source; their conditions may differ.

Legend:
[1] = system: undifferentiated 3T3-L1 preadipocytes; assay: BODIPY-FA uptake in undifferentiated 3T3-L1 preadipocytes/fibroblasts, FLIPR; type: cell-based, murine
3T3-L1 adipocytes = assay: LCFA; type: cell-based, murine; details: insulin 0.2 – 1.7 uM
hsFATP4 = hsFATP4 (Homo sapiens, UniProt Q6P1M0); assay: BODIPY-FA; type: cell-based; details: hsFATP4 cells
hsFATP4, sequence (Q6P1M0 whole entry): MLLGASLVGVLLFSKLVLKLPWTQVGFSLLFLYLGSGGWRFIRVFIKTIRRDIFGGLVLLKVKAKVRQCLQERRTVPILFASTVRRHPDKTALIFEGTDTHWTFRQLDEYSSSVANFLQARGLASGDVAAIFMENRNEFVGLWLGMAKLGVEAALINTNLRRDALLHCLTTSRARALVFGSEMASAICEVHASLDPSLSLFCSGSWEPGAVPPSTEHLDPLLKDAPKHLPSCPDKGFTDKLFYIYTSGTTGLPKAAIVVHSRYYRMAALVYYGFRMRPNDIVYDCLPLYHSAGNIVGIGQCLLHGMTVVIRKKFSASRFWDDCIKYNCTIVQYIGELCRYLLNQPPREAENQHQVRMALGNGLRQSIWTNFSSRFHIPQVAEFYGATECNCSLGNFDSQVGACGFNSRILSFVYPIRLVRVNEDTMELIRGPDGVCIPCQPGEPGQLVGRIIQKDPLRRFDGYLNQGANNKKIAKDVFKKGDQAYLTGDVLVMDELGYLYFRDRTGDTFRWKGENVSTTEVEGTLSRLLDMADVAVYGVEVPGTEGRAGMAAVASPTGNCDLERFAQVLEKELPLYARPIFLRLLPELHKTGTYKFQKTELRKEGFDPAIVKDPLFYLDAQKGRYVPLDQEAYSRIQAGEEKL

hsFATP5 = biological target: T1, hsFATP5 (Homo sapiens, UniProt Q9Y2P5); assay: BODIPY-FA; type: cell-based; details: hsFATP5 cells, data not shown
T1 sequence (Q9Y2P5 1-690): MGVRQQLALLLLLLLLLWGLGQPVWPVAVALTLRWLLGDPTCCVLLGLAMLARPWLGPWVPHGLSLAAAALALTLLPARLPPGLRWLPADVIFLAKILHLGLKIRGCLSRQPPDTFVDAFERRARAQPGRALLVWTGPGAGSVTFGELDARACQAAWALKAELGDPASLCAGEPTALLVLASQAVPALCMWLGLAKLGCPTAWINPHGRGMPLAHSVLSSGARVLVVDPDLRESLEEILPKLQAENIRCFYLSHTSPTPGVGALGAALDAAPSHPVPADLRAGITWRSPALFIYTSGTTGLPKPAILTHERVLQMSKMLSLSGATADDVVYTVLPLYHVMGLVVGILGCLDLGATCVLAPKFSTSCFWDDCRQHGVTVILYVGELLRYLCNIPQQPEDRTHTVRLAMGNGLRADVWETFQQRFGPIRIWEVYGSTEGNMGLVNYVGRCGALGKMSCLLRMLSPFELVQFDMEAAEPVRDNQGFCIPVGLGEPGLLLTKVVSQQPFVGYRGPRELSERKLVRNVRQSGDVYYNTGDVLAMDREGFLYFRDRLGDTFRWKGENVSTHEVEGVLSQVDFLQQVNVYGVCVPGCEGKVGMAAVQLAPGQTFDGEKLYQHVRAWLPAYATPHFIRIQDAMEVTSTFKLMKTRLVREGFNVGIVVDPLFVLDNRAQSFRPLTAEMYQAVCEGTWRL

insulin: adipogenic hormone insulin, enhances LCFA uptake in adipocytes
effect on uptake in undifferentiated 3T3-L1 preadipocytes/fibroblasts [1]: much weaker effects; also recorded: minimal effect | maximal insulin-induced uptake over the baseline of adipocytes (3T3-L1 adipocytes): about two- to three-fold

C[C@H](CCC(=O)O)[C@H]1CC[C@H]2[C@@H]3[C@@H](O)C[C@@H]4C[C@H](O)CC[C@]4(C)[C@H]3CC[C@]12C [ursodiol, ursodeoxycholic acid]
increase of fatty acid uptake signal by hsFATP4 at high concentration (in words) (hsFATP4; FLIPR): apparent signal increase at 100 uM

CCCCCCCCCCCCCCCC(=O)O [palmitic acid]
inhibition of fatty acid uptake by FATP4 (in words) (hsFATP4; FLIPR concentration-response): did not inhibit | inhibition of fatty acid uptake by FATP5 (in words) (hsFATP5): did not inhibit
